Reference: patent US11008357B2, “Method for preparing canagliflozin amorphous form” (Zhejiang Huahai Pharmaceutical Co., Ltd., priority 2017, dated 2021)
Like-named read-outs stand apart in the source and are kept apart here.

Legend:
[1] = stability test conditions not documented in the literature; cited from earlier work
[2] = Stability test of canagliflozin amorphous forms (moisture absorption, crystal transition); format: physicochemical; details: Temperature 25 ± 5° C., Humidity 50-60%, 3 months
Source text: In order to illustrate that the canagliflozin amorphous form of the present invention is different from the amorphous form prepared by the general amorphous preparation method, the inventors select and compare the amorphous forms obtained by the above-mentioned practical methods, including rapid evaporation of solvent for curing, mixed solvent method and other related methods.

Row | Crystal transition or not [2] | Obvious moisture absorption or not [2] | SMILES | Crystal transition or not [1] | Obvious moisture absorption or not [1]
1 | – | – | Cc1ccc([C@@H]2O[C@H](CO)[C@@H](O)[C@H](O)[C@H]2O)cc1Cc1ccc(-c2ccc(F)cc2)s1 [CN103889429 Example 2] | No | No obvious
2 | No | No obvious | Cc1ccc([C@@H]2O[C@H](CO)[C@@H](O)[C@H](O)[C@H]2O)cc1Cc1ccc(-c2ccc(F)cc2)s1 [CN104119323 Example 1, reference compound] | – | –
